The values below come from patent US11015061B2, “Phthalocyanine-based compound and uses of same” (YAMAMOTO CHEMICALS, INC., priority 2017, dated 2021).

What all share (assay type): physicochemical
The nature of data set [1]: Solubility in organic solvent (cyclopentanone). As to conditions: about 10 wt % dispersion, room temperature, 0.2 μm filter; no residue = 10 wt % or more. As to the method: The solubility of the phthalocyanine compound with respect to cyclopentanone was measured by the following method.
Cyclopentanone was added to about 1 g of the phthalocyanine compound such that the total weight thereof became about 10 g, and the obtained solution was irradiated with ultrasonic waves for about 30 minutes and then stirred for 2 hours at room temperature, thereby preparing a dispersion liquid of about 10 wt %.
The dispersion liquid was filtered through a membrane filter (0.2 μm), the substance obtained by filtration was dried for 1 hour in a drier at 60° C., and then the weight of the substance obtained by filtration was measured.
The solubility of the phthalocyanine compound in a solvent is expressed by the following equation. Solubility (wt %)=(W0−W1)/W0
W0 represents the correct weight of the phthalocyanine not yet being treated, and W1 represents the weight of the substance obtained by filtration (dissolved phthalocyanine compound residue) having been dried.

Data set [2] in a line: Light fastness test of laminated glass. The settings on record: xenon light 200 hours at 550 W/h, absorbance integrated 400 to 900 nm. As to the method: (§1) The phthalocyanine-based compound (Specific Example (1)-30) produced in Example 1 (0.013 g) was dissolved in 40 g of triethylene glycol-di-2-ethylhexanoate as an organic ester plasticizer. The obtained solution was added to 100 g of a polyvinyl butyral resin (trade name: BH-3, produced by SEKISUI CHEMICAL CO., LTD.), thoroughly melted and kneaded using a mixing roll, and extruded using an extruder, thereby obtaining an interlayer having a thickness of 0.76 mm.
(§2) The interlayer was cut in size of 100 mm×100 mm, interposed between heat ray absorbing glass plates (100 mm (length)×100 mm (width)×2.0 mm (thickness)) prepared based on JIS R3208, put into a rubber bag, and deaerated for 20 minutes at a degree of vacuum of 2.6 kPa. Then, the deaerated laminate was moved into an oven and further hold for 30 minutes at 90° C. to vacuum press. Thereafter, the laminate was compressed for 20 minutes in an autoclave under the condition of a temperature of 130° C. and a pressure of 1.3 MPa, thereby obtaining a laminated glass sample.
For a light fastness test, the absorption spectrum of the laminated glass was measured using a spectrophotometer (produced by Hitachi, Ltd.: Spectrophotometer U-3500) and adopted as a spectrum before light fastness test. Then, the laminated glass used for measuring the spectrum before test was irradiated with light for 200 hours at 550 W/h by using a xenon light fastness tester (produced by Toyo Seiki Seisaku-sho, Ltd.: SUNTEST XLS+). The absorption spectrum of the laminated glass irradiated with light was measured using the spectrophotometer and adopted as a spectrum after light fastness test.
(§3) In each of the spectra measured as above before and after the light fastness⋅heat resistance test, the values of absorbance within a range of 400 to 900 nm were integrated, and a difference between the integrated value before the light fastness⋅heat resistance test and the integrated value after the light fastness⋅heat resistance test was calculated.
(§4) The difference ΔE between the absorbance before the light fastness⋅heat resistance test and the absorbance after the light fastness⋅heat resistance test is expressed by the following equation. ΔE (%)={E(400 to 900 nm in E1)−E(400 to 900 nm in E2)}/E(400 to 900 nm in E1)×100
(§5) E1 represents the spectrum before test, E2 represents the spectrum after test, and Σ represents integration of values of absorbance. The larger the value of ΔE, the greater the spectrum change between before and after the light fastness⋅heat resistance test.

Data set [3] is described as follows: Heat resistance test of laminated glass. As to conditions: 200 hours at 100° C., absorbance integrated 400 to 900 nm. Here is the method: as §1, §2
For a heat resistance test, the laminated glass used for measuring the spectrum before test as described above was treated with heat for 200 hours at a temperature of 100° C. in a thermostat (produced by Yamato Scientific co., ltd.: IG400). By using the spectrophotometer, the absorption spectrum of the heat-treated laminated glass was measured and adopted as a spectrum after heat resistance test.
as §3, §4, §5

Regarding `COc1cccc(OCCCCc2ccc(CCCCOc3cccc(OC)c3)c3c2-c2nc-3nc3[n-]c(nc4nc(nc5[n-]c(n2)c2c(CCCCOc6cccc(OC)c6)ccc(CCCCOc6cccc(OC)c6)c52)-c2c(CCCCOc5cccc(OC)c5)ccc(CCCCOc5cccc(OC)c5)c2-4)c2c(CCCCOc4cccc(OC)c4)ccc(CCCCOc4cccc(OC)c4)c32)c1.[Cu+2]` [Specific Example (1)-40], the “Solubility to cyclopentanone (wt %)” value in data set [1] is no less than 10% wt %. Besides, in data set [2], the “ΔE (%) Light fastness” value came to 2%. The “ΔE (%) Heat resistance” value in data set [3] turned out to be 2%.

For the compound `COc1cccc(OC)c1OCCCCc1ccc(CCCCOc2c(OC)cccc2OC)c2c1-c1nc-2nc2[n-]c(nc3nc(nc4[n-]c(n1)c1c(CCCCOc5c(OC)cccc5OC)ccc(CCCCOc5c(OC)cccc5OC)c41)-c1c(CCCCOc4c(OC)cccc4OC)ccc(CCCCOc4c(OC)cccc4OC)c1-3)c1c(CCCCOc3c(OC)cccc3OC)ccc(CCCCOc3c(OC)cccc3OC)c21.[Cu+2]` [Specific Example (1)-45], in data set [1], the “Solubility to cyclopentanone (wt %)” value was no less than 10% wt %. Further, the “ΔE (%) Light fastness” value in data set [2] is recorded as 3%. For the same compound, in data set [3], the “ΔE (%) Heat resistance” value came to 4%.

`[O]=[V+2].c1ccc(OCCOCCCCc2ccc(CCCCOCCOc3ccccc3)c3c2-c2nc-3nc3[n-]c(nc4nc(nc5[n-]c(n2)c2c(CCCCOCCOc6ccccc6)ccc(CCCCOCCOc6ccccc6)c52)-c2c(CCCCOCCOc5ccccc5)ccc(CCCCOCCOc5ccccc5)c2-4)c2c(CCCCOCCOc4ccccc4)ccc(CCCCOCCOc4ccccc4)c32)cc1` [Specific Example (1)-38]: the “Solubility to cyclopentanone (wt %)” value in data set [1] is on record as no less than 10% wt %. Further, in data set [2], the “ΔE (%) Light fastness” value is 4%. Also, the “ΔE (%) Heat resistance” value in data set [3] is 2%.

With `COc1cccc(OCCCCc2ccc(CCCCOc3cccc(OC)c3)c3c2-c2nc-3nc3[n-]c(nc4nc(nc5[n-]c(n2)c2c(CCCCOc6cccc(OC)c6)ccc(CCCCOc6cccc(OC)c6)c52)-c2c(CCCCOc5cccc(OC)c5)ccc(CCCCOc5cccc(OC)c5)c2-4)c2c(CCCCOc4cccc(OC)c4)ccc(CCCCOc4cccc(OC)c4)c32)c1.[O]=[V+2]` [Specific Example (1)-39], the “Solubility to cyclopentanone (wt %)” value in data set [1] is recorded as no less than 10% wt %. Besides, the “ΔE (%) Light fastness” value in data set [2] stood at 4%. Also, in data set [3], the “ΔE (%) Heat resistance” value stood at 3%.

Take `COCc1ccc(COC)c2c1-c1nc-2nc2[n-]c(nc3nc(nc4[n-]c(n1)c1c(COC)ccc(COC)c41)-c1c(COC)ccc(COC)c1-3)c1c(COC)ccc(COC)c21.[O]=[V+2]` [Comparative Example Compound (a), reference compound]: in data set [1], the “Solubility to cyclopentanone (wt %)” value is given as no more than 1% wt %. Moreover, the “ΔE (%) Light fastness” value in data set [2] was found to be 33%. Besides, in data set [3], the “ΔE (%) Heat resistance” value is on record as 35%.

As for `CCOCCCCc1ccc(CCCCOCC)c2c1-c1nc-2nc2[n-]c(nc3nc(nc4[n-]c(n1)c1c(CCCCOCC)ccc(CCCCOCC)c41)-c1c(CCCCOCC)ccc(CCCCOCC)c1-3)c1c(CCCCOCC)ccc(CCCCOCC)c21.[O]=[V+2]` [Specific Example (1)-33], in data set [1], the “Solubility to cyclopentanone (wt %)” value is recorded as no less than 10% wt %. Moreover, the “ΔE (%) Light fastness” value in data set [2] amounted to 2%. Further, in data set [3], the “ΔE (%) Heat resistance” value is given as 3%.

Turning to `CC(C)(C)c1ccc(OCCCCc2ccc(CCCCOc3ccc(C(C)(C)C)cc3)c3c2-c2nc-3nc3[n-]c(nc4nc(nc5[n-]c(n2)c2c(CCCCOc6ccc(C(C)(C)C)cc6)ccc(CCCCOc6ccc(C(C)(C)C)cc6)c52)-c2c(CCCCOc5ccc(C(C)(C)C)cc5)ccc(CCCCOc5ccc(C(C)(C)C)cc5)c2-4)c2c(CCCCOc4ccc(C(C)(C)C)cc4)ccc(CCCCOc4ccc(C(C)(C)C)cc4)c32)cc1.[O]=[V+2]` [Specific Example (1)-42], the “Solubility to cyclopentanone (wt %)” value in data set [1] is no less than 10% wt %. Further, in data set [2], the “ΔE (%) Light fastness” value came out at 2%. Besides, the “ΔE (%) Heat resistance” value in data set [3] amounted to 3%.

As for `[O]=[V+2].c1ccc(OCCCCc2ccc(CCCCOc3ccccc3)c3c2-c2nc-3nc3[n-]c(nc4nc(nc5[n-]c(n2)c2c(CCCCOc6ccccc6)ccc(CCCCOc6ccccc6)c52)-c2c(CCCCOc5ccccc5)ccc(CCCCOc5ccccc5)c2-4)c2c(CCCCOc4ccccc4)ccc(CCCCOc4ccccc4)c32)cc1` [Specific Example (1)-37], in data set [1], the “Solubility to cyclopentanone (wt %)” value was no less than 10% wt %. Moreover, the “ΔE (%) Light fastness” value in data set [2] was found to be 3%. In data set [3], the “ΔE (%) Heat resistance” value is 3%.

`COCCCCc1ccc(CCCCOC)c2c1-c1nc-2nc2[n-]c(nc3nc(nc4[n-]c(n1)c1c(CCCCOC)ccc(CCCCOC)c41)-c1c(CCCCOC)ccc(CCCCOC)c1-3)c1c(CCCCOC)ccc(CCCCOC)c21.[O]=[V+2]` [Specific Example (1)-30]: the “Solubility to cyclopentanone (wt %)” value in data set [1] is given as no less than 10% wt %. Further, the “ΔE (%) Light fastness” value in data set [2] is recorded as 5%. The “ΔE (%) Heat resistance” value in data set [3] is on record as 6%.

On to `Fc1ccccc1OCCCCc1ccc(CCCCOc2ccccc2F)c2c1-c1nc-2nc2[n-]c(nc3nc(nc4[n-]c(n1)c1c(CCCCOc5ccccc5F)ccc(CCCCOc5ccccc5F)c41)-c1c(CCCCOc4ccccc4F)ccc(CCCCOc4ccccc4F)c1-3)c1c(CCCCOc3ccccc3F)ccc(CCCCOc3ccccc3F)c21.[O]=[V+2]` [Specific Example (1)-43], for which the “Solubility to cyclopentanone (wt %)” value in data set [1] is reported as no less than 10% wt %. Further, the “ΔE (%) Light fastness” value in data set [2] amounted to 3%. Moreover, the “ΔE (%) Heat resistance” value in data set [3] came out at 4%.

`COCCCCc1ccc(CCCCOC)c2c1-c1nc-2nc2[n-]c(nc3nc(nc4[n-]c(n1)c1c(CCCCOC)ccc(CCCCOC)c41)-c1c(CCCCOC)ccc(CCCCOC)c1-3)c1c(CCCCOC)ccc(CCCCOC)c21.[Cu+2]` [Specific Example (1)-31]: the “Solubility to cyclopentanone (wt %)” value in data set [1] is no less than 10% wt %. In addition, the “ΔE (%) Light fastness” value in data set [2] is recorded as 3%. The “ΔE (%) Heat resistance” value in data set [3] came to 2%.

In the case of `COc1cccc(OC)c1OCCCCc1ccc(CCCCOc2c(OC)cccc2OC)c2c1-c1nc-2nc2[n-]c(nc3nc(nc4[n-]c(n1)c1c(CCCCOc5c(OC)cccc5OC)ccc(CCCCOc5c(OC)cccc5OC)c41)-c1c(CCCCOc4c(OC)cccc4OC)ccc(CCCCOc4c(OC)cccc4OC)c1-3)c1c(CCCCOc3c(OC)cccc3OC)ccc(CCCCOc3c(OC)cccc3OC)c21.[O]=[V+2]` [Specific Example (1)-44], the “Solubility to cyclopentanone (wt %)” value in data set [1] is given as no less than 10% wt %. Besides, the “ΔE (%) Light fastness” value in data set [2] worked out at 3%. In data set [3], the “ΔE (%) Heat resistance” value is 3%.
